Assay results from patent US9999222B2, “Herbicidal combination comprising azines” (BASF SE, priority 2014, dated 2018).
Read-outs that look alike come from different tables or passages of the source.

Assays:
Assay in all cases: Greenhouse test, pre-emergence treatment
PHACA = format: in vivo, Phalaris canariensis; conditions: Phalaris canariensis, pre-emergence, 480 h
Summary of the method: (§1)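 Seeds were sown in loamy sand with approximately 3.0% humus, then sprayed at once with actives suspended or emulsified in water. Pots were watered, hooded until rooting, held at 10-25° C. or 20-35° C. by species for 2 to 4 weeks, and scored 0 (no damage) to 100 (no emergence/complete destruction).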

AVEFA = format: in vivo, Avena fatua; conditions: pre-emergence
Summary of the method: as §1

KCHSC = format: in vivo, Kochia scoparia; conditions: Bassia scoparia, pre-emergence, 480 h
Summary of the method: as §1

POLCO = format: in vivo, Polygonum convolvulus; conditions: Fallopia convolvulus, pre-emergence, 480 h, 20 g ai/ha, 20 DAT; read-out: observed % activity
Summary of the method: as §1

GALAP = format: in vivo, Galium aparine; conditions: Galium aparine, pre-emergence, 480 h, 40 g ai/ha, 20 DAT; read-out: observed % activity
Summary of the method: as §1

LOLMU = format: in vivo, Lolium multiflorum; conditions: Lolium multiflorum, pre-emergence, 480 h, pre-emergence, read-out: observed % activity 20 DAT
Summary of the method: as §1

BRADC = format: in vivo, Brachiaria decumbens; conditions: Urochloa decumbens, pre-emergence, 480 h
From the text: The culture containers used were plastic flowerpots containing loamy sand with approximately 3.0% of humus as the substrate. The seeds of the test plants were sown separately for each species.
For the pre-emergence treatment, the active ingredients, which had been suspended or emulsified in water, were applied directly after sowing by means of finely distributing nozzles. The containers were irrigated gently to promote germination and growth and subsequently covered with transparent plastic hoods until the plants had rooted. This cover caused uniform germination of the test plants, unless this had been impaired by the active ingredients.
Depending on the species, the plants were kept at 10-25° C. or 20-35° C., respectively.
The test period extended over 2 to 4 weeks. During this time, the plants were tended, and their response to the individual treatments was evaluated.
Evaluation was carried out using a scale from 0 to 100. 100 means no emergence of the plants, or complete destruction of at least the aerial moieties, and 0 means no damage, or normal course of growth. A moderate herbicidal activity is given at values of at least 60, a good herbicidal activity is given at values of at least 70, and a very good herbicidal activity is given at values of at least 85.
The respective stated components a and b, and if appropriate, c were formulated as a 10% by weight strength emulsion concentrate and, with addition of the amount of solvent system, introduced into the spray liquor used for applying the active compound.
In the examples, the solvent used was water.
In the examples below, using the method of S. R. Colby (1967) “Calculating synergistic and antagonistic responses of herbicide combinations”, Weeds 15, p. 22ff., the value E, which is expected if the activity of the individual active compounds is only additive, was calculated. E=X+Y−(X·Y/100) where • X=percent activity using active compound a at an application rate A; • Y=percent activity using active compound b at an application rate B; • E=expected activity (in %) by a+b at application rates A+B.
If the value found experimentally is higher than the value E calculated according to Colby, a synergistic effect is present.

SETFA = format: in vivo, Setaria faberi; conditions: Setaria faberi, 480 h, use rate 30 g ai/ha, read-out: observed % activity 20 DAT
Summary of the method: as §1

ECHCG = format: in vivo, Echinocloa crus-galli; conditions: Echinochloa crus-galli, 480 h, read-out: observed % activity 20 DAT
Summary of the method: as §1

ALOMY = format: in vivo, Alopecurus myosuroides; conditions: Alopecurus myosuroides, pre-emergence, 480 h
Summary of the method: as §1

[1] = 10 g ai/ha, 20 DAT, read-out: observed % activity
[2] = 20 g ai/ha, 20 DAT, read-out: observed % activity
[3] = 10 g ai/ha, read-out: observed % activity 20 DAT
[4] = 20 g ai/ha, read-out: observed % activity 20 DAT
[5] = 30 g ai/ha, read-out: observed % activity 20 DAT
[6] = 40 g ai/ha, read-out: observed % activity 20 DAT
[7] = use rate 30 g ai/ha, read-out: observed % activity 20 DAT
[8] = use rate 60 g ai/ha, 20 DAT, read-out: observed % activity 20 DAT
[9] = use rate 60 g ai/ha, read-out: observed % activity 20 DAT
[10] = 40 g ai/ha, 20 DAT, read-out: observed % activity

Q: CC(C)N(C(=O)COc1nnc(C(F)(F)F)s1)c1ccc(F)cc1 [Flufenacet, flufenacet] was tested. Which inhibition at 10 g/ha (PHACA; [1]) did it give?
A: 0%

Q: What about the inhibition at 20 g/ha (PHACA; [2]) of the same compound?
A: 33%

Q: What about the pest or weed control at 10 g/ha (PHACA; [3]) of the same compound?
A: 10%

Q: What about the pest or weed control at 20 g/ha (PHACA; [4]) of the same compound?
A: 65%

Q: What about the pest or weed control at 30 g/ha (PHACA; [5]) of the same compound?
A: 80%

Q: And the pest or weed control at 40 g/ha (PHACA; [6])?
A: 75%

Q: What about the inhibition at 30 g/ha (PHACA; [7]) of the same compound?
A: 65%

Q: What about the pest or weed control at 60 g/ha (PHACA; [8]) of the same compound?
A: 98%

Q: And the inhibition at 60 g/ha (PHACA; [9])?
A: 98%

Q: And the inhibition at 40 g/ha (AVEFA; Avena fatua, 480 h, 40 g ai/ha, 20 DAT, read-out: observed % activity)?
A: 10%

Q: What about the “observed % activity 20 DAT” value (AVEFA; 30 g ai/ha) of the same compound?
A: 0%

Q: And the “observed % activity 20 DAT” value (AVEFA; 40 g ai/ha)?
A: 55%

Q: And the inhibition at 10 g/ha (KCHSC; [1])?
A: 0%

Q: And the inhibition at 20 g/ha (KCHSC; [2])?
A: 0%

Q: And the inhibition at 40 g/ha (KCHSC; [10])?
A: 0%

Q: What about the inhibition at 30 g/ha (KCHSC; [7]) of the same compound?
A: 0%

Q: What about the inhibition at 60 g/ha (KCHSC; [9]) of the same compound?
A: 0%

Q: What about the inhibition at 20 g/ha (POLCO) of the same compound?
A: 0%

Q: What about the inhibition at 40 g/ha (GALAP) of the same compound?
A: 40%

Q: What about the pest or weed control at 10 g/ha (LOLMU; 10 g ai/ha) of the same compound?
A: 0%

Q: What about the pest or weed control at 20 g/ha (LOLMU; 20 g ai/ha) of the same compound?
A: 20%

Q: What about the pest or weed control at 30 g/ha (LOLMU; 30 g ai/ha) of the same compound?
A: 30%

Q: And the pest or weed control at 40 g/ha (LOLMU; 40 g ai/ha)?
A: 55%

Q: What about the pest or weed control at 30 g/ha (LOLMU; use rate 30 g ai/ha, 20 DAT) of the same compound?
A: 0%

Q: And the inhibition at 30 g/ha (LOLMU; use rate 30 g ai/ha)?
A: 20%

Q: And the pest or weed control at 60 g/ha (LOLMU; use rate 60 g ai/ha, 20 DAT)?
A: 30%

Q: What about the inhibition at 60 g/ha (LOLMU; use rate 60 g ai/ha) of the same compound?
A: 30%

Q: And the inhibition at 40 g/ha (BRADC; [10])?
A: 65%

Q: What about the pest or weed control at 10 g/ha (BRADC; [3]) of the same compound?
A: 45%

Q: And the pest or weed control at 20 g/ha (BRADC; [4])?
A: 40%

Q: And the pest or weed control at 30 g/ha (BRADC; [5])?
A: 0%

Q: And the pest or weed control at 40 g/ha (BRADC; [6])?
A: 25%

Q: What about the pest or weed control at 60 g/ha (BRADC; 60 g ai/ha, read-out: observed % activity 20 DAT) of the same compound?
A: 98%

Q: And the inhibition at 30 g/ha (SETFA)?
A: 98%

Q: What about the pest or weed control at 30 g/ha (ECHCG; 30 g ai/ha) of the same compound?
A: 75%

Q: And the pest or weed control at 60 g/ha (ECHCG; 60 g ai/ha)?
A: 95%

Q: And the pest or weed control at 30 g/ha (ECHCG; use rate 30 g ai/ha, 20 DAT)?
A: 85%

Q: What about the inhibition at 30 g/ha (ECHCG; use rate 30 g ai/ha) of the same compound?
A: 85%

Q: And the inhibition at 10 g/ha (ALOMY; [1])?
A: 28%

Q: What about the pest or weed control at 10 g/ha (ALOMY; [3]) of the same compound?
A: 25%

Q: And the pest or weed control at 20 g/ha (ALOMY; [4])?
A: 70%

Q: And the pest or weed control at 40 g/ha (ALOMY; [6])?
A: 75%

Q: And the inhibition at 30 g/ha (ALOMY; [7])?
A: 75%

Q: What about the pest or weed control at 60 g/ha (ALOMY; [8]) of the same compound?
A: 80%

Q: And the inhibition at 60 g/ha (ALOMY; [9])?
A: 80%
